Measured values as given in PMC12040169 (PLOS Biology, 2025).

Assay: in vitro
Conditions: human, hela cells, % viability

| Structure (SMILES) | viability at 28.5 h, 10 µM |
| --- | --- |
| Cc1cc(C)n(-c2cc(N3CCN(S(=O)(=O)Cc4ccccc4)CC3)ccc2[N+](=O)[O-])n1 [CBK264407] | 115% |
| Cc1ccc(-c2csc(NC(=O)c3cccnc3)n2)cc1 [CBK072677] | 96.9% |
| O=C(O)c1ccc(NCc2ccccc2OCc2ccc(F)cc2)cc1 [CBK266487] | 101% |
| CCN1CCN(C2CCN(Cc3ccccc3[N+](=O)[O-])CC2)CC1 [CBK264631G] | 98.1% |
| Cc1cc(-c2nn3c(-c4ccccc4)nnc3s2)c2ccccc2n1 [CBK267187] | 101% |
| CC(C)c1cc(C(=O)N(C)Cc2cccc3ncccc23)n(C)n1 [CBK282567] | 86.4% |
| CC1CCC/C(=N\NC(=O)C2C3CCCCC32)C1 (stereo not drawn) [CBK025750] | 116% |
| CC(=O)NC(N(C)S(=O)(=O)c1ccc(C)cc1)C(Cl)(Cl)Cl (stereo not drawn) [CBK262662] | 93.8% |
| O=C(CN1CCCC2(CCN(C(=O)c3cc(F)c(F)cc3F)C2)C1)Nc1ccc(F)c(Cl)c1 (stereo not drawn) [CBK132008] | 96.9% |
| NS(=O)(=O)c1ccc(CCNC(=O)c2ccccc2Oc2ccccc2)cc1 [CBK264394] | 89.4% |
| CNS(=O)(=O)N1CCN(S(=O)(=O)NC)CC1 [CBK007064] | 93.7% |
| O=C(CC1Nc2ccccc2NC1=O)Nc1cccc(C(F)(F)F)c1 (stereo not drawn) [CBK262510] | 99.6% |
| COC(=O)c1c(NC(=O)C2CC=CCC2C(=O)O)sc2c1CCC(C)C2 (stereo not drawn) [CBK262655] | 101% |
| Cn1c(=O)c2c(ncn2CC(=O)Nc2ccc(OCc3ccccc3)cc2)n(C)c1=O [CBK130478] | 89.8% |
| O=C(O)/C=C/c1cccc(/C=C/C(=O)O)c1 [CBK261650] | 89.9% |
| O=C(O)c1ccc(/C=C/C(=O)c2ccc3c(c2)OCCO3)cc1 [CBK262173] | 89.1% |
| Cc1cc(C)cc(N(CC(=O)Nc2ccccc2-c2ccccc2)S(=O)(=O)c2ccccc2)c1 [CBK265933] | 92.4% |
| CCNC(=O)Nc1ccc(-c2ccc(SC)cc2)c2ccccc12 [CBK083723] | 90.4% |

| Structure (SMILES) | viability at 28.5 h, 10 µM |
| --- | --- |
| O=C(O)Cc1nc(-c2ccccc2)c(-c2ccccc2)s1 [CBK159470] | 99.4% |
| CCCCN(C)c1nccnc1-c1ccncc1 [CBK037655] | 93.4% |
| O=C(c1cncnc1)N1CCC(Cc2ccccc2)CC1 [CBK200212] | 92.8% |
| CCOC(=O)C1CCN(C(=O)Cn2cnc3ccc(Br)cc3c2=O)CC1 [CBK306070] | 106% |
| Cc1ccc(C#N)c(NS(=O)(=O)c2cc(C)c(Cl)cc2C)c1 [CBK045250] | 96.6% |
| CSCCCNC(=O)N1CCN(Cc2ccccc2)CC1 [CBK155623] | 89.9% |
| CN(C)S(=O)(=O)n1cc(/C=C/c2nc(N)nc(-c3ccccc3O)n2)c2ccccc21 [CBK268386] | 119% |
| O=c1cc(N2CCN(c3ccccc3)CC2)[nH]c(=O)n1-c1ccccc1Cl [CBK287506] | 101% |
| O=S(=O)(NCCc1ccccc1)c1cccc2nsnc12 [CBK261128] | 103% |
| Clc1ccc(-c2nn[nH]n2)c(Cl)c1 [CBK018932] | 89.7% |
| COc1ccc(-c2c[nH]c([C@@H]3COCCN3Cc3cccc(C#N)c3)n2)cc1 [CBK289298] | 96% |
| COCc1nc2n(n1)CC(NC1CCc3ccccc3CC1)CC2 (stereo not drawn) [CBK304737] | 96.1% |
| CCOc1ccc(C(=O)Nc2ccc(-c3nc4ccccc4s3)cc2C)cc1[N+](=O)[O-] [CBK269005] | 90.5% |
| O=[N+]([O-])c1ccc(C2CNC(c3ccccc3O)O2)cc1 (stereo not drawn) [CBK262298] | 94% |
| O=C(C1CCCO1)N1CCC(c2ccc(F)cc2)CC1 (stereo not drawn) [CBK283484] | 81.4% |
| CCc1c(SCC(=O)O)nc2ccccc2c1C [CBK286928] | 95.8% |
| O=S(=O)(Nc1nc2c(s1)CCCC2)c1cc(Cl)ccc1Cl [CBK096578] | 98.7% |
| N#Cc1ccc(COc2cccc(Cl)c2Cl)cc1 [CBK002611] | 92.5% |
